Test results as given in US20060183773A1, “Uses of methylphenidate derivatives” (priority 2005, published 2006).

Legend:
Assay type in all cases: cell-based, human
RAS = RAS activation pulldown assay in TRiPS cells; details: CD3/CD28 beads + 15 μg/ml
Experimental: Day 10 TRiPS cells, 1×10^6, were incubated with 15 μg/ml of the compound of formula II (Cpd II) for 1 hour at 37° C. Then, the cells were incubated with CD3/CD28 beads (1 μl per 100,000 cells) (obtained from Dynal) for 10 minutes at 37° C. The cells were then lysed with a mild buffer (supplied with Pierce EZ-Detect activation kit described below) to produce cell extracts. Protein concentrations of the resulting extracts were determined by bicinchoninic acid (BCA) assay (Pierce) and placed on ice for immediate use.
Pulldown assays were performed using Pierce EZ-Detect activation kits according to the manufacturer's instructions utilizing GST-RAF-1-RBD and GST-RalGDS-RBD for RAS and RAP-1 respectively. Briefly, 400 μg total protein from each extract was combined with recombinant protein and glutathione resin and incubated at 4° C. for one hour with gentle shaking. The resin was then washed to remove unbound protein and the activated RAS and RAP-1 proteins were removed by boiling in the presence of SDS-PAGE loading dye containing reducing agent. RAS and RAP-1 western blots were performed to visualize the proteins using antibodies supplied with the kit. Densitometry of the X-ray films was done by scanning and computer analysis.

TCR-positive cells = assay: Annexin staining of TCR-positive PBL, flow cytometry (cell death)
Experimental: After this incubation, PHA was added to give a final concentration of 5 μg/ml, and the cells were incubated for an additional 72 hours at 37° C., 5% CO2. All cultures were performed in triplicate. Cells were then removed by centrifugation at 1000 rpm for 10 minutes.
The cells were further analyzed by flow cytometry. Annexin was used to determine populations of dead or dying cells. Anti-CD69 antibody was used to establish the level of cellular activation. Antibody to T-cell receptor αβ (TCR) was also used. Recombinant Annexin 5 (PE and FITC conjugates) and the antibodies were all purchase from Caltag (Burlingham, Calif.) and used following the manufacturer's recommendations.

STAT4 = assay: Custom AntibodyArray, TRiPS cells: STAT4; details: 15 μg/ml, 30 minutes
Experimental: Day 18 TRiPS cells, 1×10^6, were incubated for 30 minutes at 37° C., either with nothing added (“Nil”), with 1 μl CD3/CD28 Dynabeads (Dynal, Oslo, Norway) (“CD3/CD28 beads”) per 100,000 cells, or with CD3/CD28 beads and 15 μg/ml of the compound of formula II (Cpd II). After the incubation, the cells were lysed in Cell-Lytic Mammalian Cell Extraction Reagent (Sigma). After centrifugation to pellet cellular debris, the supernatants (cell extracts) were obtained.
The cell extracts (supernatants) were then analyzed using a Custom AntibodyArray™ manufactured by Hypromatrix Inc., Worcester, Mass., following the manufacturer's instructions. The Custom AntibodyArray™ is a nylon membrane blotted with antibodies to the proteins listed below. Briefly, the cell extracts were incubated with duplicate Custom AntibodyArray™'s for 2 hours at room temperature with slow shaking, followed by three washes with Tris buffer (150 mM NaCl, 25 mM Tris, 0.05% Tween-20, pH 7.5). HRP-labeled antibodies specific for phosphorylated-tyrosine, phosphorylated-serine and phosphorylated-threonine in Tris buffer were added, and the arrays incubated for 2 hours. After three more washes with Tris buffer, a peroxidase-reactive luminescent substrate was added. The arrays were visualized by exposure to X-ray film. Densitometry of the X-ray films was measured by scanning and computer analysis.

IL-8 = IL-8 release by PHA-stimulated PBL, ELISA; details: PBL donor GR-192; 2 μg/ml PHA, 96 h; Cpd II 15 μg/ml, Dex 10 μM; FIG. 8
Experimental: Whole blood was drawn from GR-192, a normal human volunteer, and processed as described in Example 1 to give heat-inactivated serum and PBL. […] After this incubation, PHA was added to give a final concentration of 2 μg/ml, and the cells were incubated for an additional 96 hours at 37° C., 5% CO2. All cultures were performed in triplicate. Cells were then removed by centrifugation at 1000 rpm for 10 minutes, and the culture medium collected.
Release of IL-8 into the culture medium was measured by ELISA. To perform the ELISA, matched pairs of antibodies against human IL-8 were purchased from Pierce Biotechnology and Biosource, respectively. ELISA strip well plates were coated with 2 μg/ml of antibody to IL-8 (in phosphate-buffered saline (PBS)) overnight at room temperature. The plates were then blocked using a 4% BSA solution in PBS for one hour, followed by the addition of 50 μl of experimental culture medium per well in duplicate. The plates were incubated at room temperature for one hour and then washed using 50 mM Tris pH 8.0 with 0.1% Tween 20. Then, solutions of 100 ng/ml biotinylated second antibody to IL-8 were made in blocking buffer, and 100 μl were added per well. The plates were incubated for 1 hour and washed again. […] OD was determined using microplate reader with a 450 nm filter.

HUVECs = assay: Cell death of HUVECs in the TNFα/IL-8 experiment; details: highest dose (30 μg/ml)
Experimental: Passage 4 HUVECs, human source lot number 8710 (obtained from ATCC), were put into the wells of a 24-well tissue culture plate at 5,000 cells/well in EGM-2 medium (obtained from Cambrex) and cultured for 72 hours at 37° C. and 5% CO2. […] After incubation for 1 hour at 37° C. and 5% CO2, TNFα (obtained from Pierce) was added to give a final concentration of 10 ng/ml, and the cells were incubated for an additional 18 hours at 37° C. and 5% CO2. After this incubation, the supernatants were collected, and the amount of IL-8 in the supernatants determined by ELISA as described in Example 4.

## COC(=O)C(c1ccc(-c2ccccc2)cc1)C1CCCCN1 (stereo not drawn) [Cpd II]
RAS
  inhibition of RAS protein (in words): very strong inhibition of RAS protein
RAS; no treatment 66.83, beads only 245.91
  Integrated Optical Density for RAS assay: 84.98
TCR-positive cells; 15 μg/ml, no PHA, background 7.3%
  Annexin staining of TCR-positive cells: 23%
TCR-positive cells; 50 μg/ml, no PHA, background 7.3%
  Annexin staining of TCR-positive cells: 45%
TCR-positive cells; PHA 5 μg/ml plus 15 μg/ml, PHA alone 67%
  Annexin staining of TCR-positive cells: 62%
TCR-positive cells; PHA 5 μg/ml plus 50 μg/ml, PHA alone 67%
  Annexin staining of TCR-positive cells: 87%
STAT4
  Effect of Cpd II on the protein in CD3/CD28 stimulated TRiPS cells: Activated
IL-8
  IL-8 release induced by PHA: significantly inhibited IL-8 release induced by PHA
HUVECs
  cell death: some cell death
